Our source for the GABARAPL2 accumulation values is patent US20260272952A1, “CANNABINOIDS FOR TREATING NEUROINFLAMMATION” (Lundquist Institute for Biomedical Innovation at …, priority 2022, published 2026).

The test system of the assay is MPS IIIA neurons. Description: GABARAPL2 western blot in iPSC-derived cortical neurons treated with CBD. The class given is cell-based, human. Conditions: CBD 1 μM and 5 μM, cortical neurons from MPS IIIA patients' iPSCs, with or without Bafilomycin A1 200 nM. How it is done: HCNT: human health controls; MPS IIIA: MPS IIIA forebrain neurons.
Cortical neurons differentiated from healthy control and MPS IIIA patients' iPSCs. […] GABARAPL2, a protein which involves in autophagy, was measured in a western blot assay (see FIG. 3).
On the technique in general: Immunoblotting shows a protein as a band on a membrane.

As for Cannabidiol [CBD], the GABARAPL2 accumulation result is on record as “decreases”.
